Data: patent publication US10604739B2, “Cardiomyocyte production” (Cellular Dynamics International, Inc., priority 2009, dated 2020)

Legend:
Type in all cases: cell-based, human
iPS6.1 cells [1] = test: iPS6.1 Growth Factor Titration #2; conditions: HGF 0, 20, 50 ng/mL, best performing FGF concentration conditions
Description: (§1) Aggregate formation and cardiac induction procedures of those iPS cells at different initial densities were performed essentially the same as described in Examples 4 except different concentrations of human HGF (hHGF) and FGF were applied to Aggregate Formation Medium, Aggregate Transition Medium and Cardiac Induction Medium.
Based on the results of the first experiment (see FIGS. 29A-B), the second iPS6.1 growth factor titration focused on the lower dose range for both FGF and HGF (FIGS. 30A-B). […] However, it is important to note that in no case did the omission of HGF lead to the failure of a condition which was otherwise successful in the presence of HGF.

iPS6.1-MRB cells = test: iPS-MRB 1 L spinner qualification runs with and without HGF; conditions: for CM/L (millions) / Purity (% RFP+): +HGF, 1 L spinner flask
Description: IPS-MRB cells were maintained on Matrigel™ in TeSR medium (from Stem Cell Technologies) no later than when they would normally be ready to be passaged. IPS cells were grown in T-150 flasks throughout this example, but can be scaled for starting cells in other culture formats. Five T-150 flasks of iPS cells were harvested: media were aspirated and cells were incubated with 12 mL room temperature TrypLe™ (Invitrogen), a recombinant typsin-like enzyme, at 37° C. for 7 minutes. The cells were then transferred to five 50 ml conical tubes (one tube for each T-150 flask) containing 12 ml DMEM/F12 (GIBCO) with 10% fetal calf serum (FCS) (Chemicon). The cells were then pelleted at 1200 rpm for 5 minutes and supernatant aspirated. The pellet was resuspended in 10 mL aggregate promotion medium (TeSR medium containing 25 μg/ml Gentamicin, 1 μM H1152, and with or without 50 ng/ml human recombinant HGF). The resuspended pellet were combined into a single 250 ml conical tube (allowing volume for later dilution), if necessary. Cells were counted using CEDEX HiRES cell counter and then diluted to 1.0×10^6 cells/mL. Each 500 mL diluted cell stock was dispensed into one 1 L spinner flask (leaving room in spinner flasks for later dilution) and the flasks were placed on magnetic stir platform with a speed of 50 RPM (both side caps were loosed by two full turns to allow gas transfer).
On the next day (Day 1), flasks containing the cells were set in cell culture hood and suspended aggregate allowed to settle to the bottom of the flasks for 30 minutes. The spent media were aspirated using a 2 mL aspirating pipet with approximately 100 mL left in the flasks (if films of cells form on bottom after setting, shake flask back and forth in each direction to break them up before adding medium). Aggregate transition medium (50% TeSR medium, 45% DMEM containing GlutaMax™, 5% ES-qualified FCS, 25 μg/ml Gentamicin, 1 μM H1152, and with or without 50 ng/ml HGF) were added to the flasks using Pipeline machine to bring to the original volume. The flasks were returned to the stirring platform inside a 7% CO2 incubator and the agitator was started to operate at 50±1 RPM (both side caps were loosed by two full turns to allow gas transfer).
On Day 2, flasks containing the cells were set in cell culture hood and suspended aggregate allowed to settle to the bottom of the flasks for 15 minutes. The spent media were aspirated with approximately 100 mL left in the flasks. Aggregate suspension were gently mixed in flasks, and cardiac induction medium (90% TeSR medim, 10% ES-qualified FCS, 25 μg/ml Gentamicin, 50 ng/ml human recombinant bFGF, and with or without 50 ng/ml human recombinant HGF) were added to each flask to 1 L (2× dilution) with Pipeline machine. The flasks were returned to the stirring platform inside a 7% CO2 incubator and the agitator was started to operate at 50±1 RPM (both side caps were loosed by two full turns to allow gas transfer).
On Day 3, flasks containing the cells were set in cell culture hood and suspended aggregate allowed to settle to the bottom of the flasks for 15 minutes. The spent media were aspirated with approximately 100 mL left in the flasks. Spinner flasks were shaken back and forth to break large clumps. Cardiac induction medium were added back to each flask to bring back to the original volume for Days 3-7; cardiac maintenance medium were exchanged instead for Days 8, 10, 12. After every media exchange, the flasks were returned to the stirring platform inside a 7% CO2 incubator and the agitator was started to operate at 50±1 RPM (both side caps were loosed by two full turns to allow gas transfer).
Cell cultures were analyzed on Day 14 by total cell counting per flask at harvest, cTNT or RFP purity at harvest. Aggregate count was also carried on Day 2 and final stage and aggregate pictures were taken.
Three qualification runs were performed to confirm at large scale and with iPS6.1-MRB cells that removal of HGF has no measurable effect. […]

iPS6.1 and H9-TGZ cells = test: Meta-analysis of paired conditions with and without 50 ng/mL HGF
Description: A meta-analysis across these experiments was performed to assess whether the inventors could detect any measurable benefit of including HGF in the induction medium. This analysis reviewed all the available experiments for paired conditions with and without 50 ng/mL HGF. […] This left 14 paired conditions (11 performed in triplicate within an experiment). To aid in this analysis, a process raw material cost model was employed to estimate the cost per million cardiomyocytes under each condition. This model used the most up-to-date raw material cost and process information available at the time (˜Jun. 1, 2009).

H9-TGZ cells = test: H9-TGZ Growth Factor Titration #2 (repeat); conditions: FIGS. 32A-C
Description: as §1
Due to the issues with aggregate formation noted above, the H9-TGZ growth factor titration experiment was repeated. […] However, it is important to note that despite the overall poor performance of the cultures, the usual and expected decrease in performance at low FGF level was still discernable (FIGS. 32A-C).

iPS6.1 cells [2] = test: iPS6.1 Growth Factor Titration #1; conditions: HGF 0, 5, 20, 50, 150 ng/mL
Description: as §1
Conditions without FGF had virtually no surviving aggregates and no measurable cardiomyocytes (FIGS. 29A-B). On the other hand, all conditions with FGF yielded cardiomyocytes independent of HGF concentration (FIGS. 29A-B).

[3] = First iPS 4-corners, head-to-head pairings with purity >1%
[4] = First iPS GF matrix, head-to-head pairings with purity >1%
[5] = H9-TGZ Matrix #2, head-to-head pairings with purity >1%
[6] = H9-TGZ Matrix #2 repeat, head-to-head pairings with purity >1%
[7] = HGF Conc 50 ng/mL, 14 paired conditions
[8] = Second iPS GF matrix, head-to-head pairings with purity >1%
[9] = Total of all experiments, head-to-head pairings with purity >1%

HGF: human recombinant HGF (hepatic growth factor), R&D systems
Trend of productivity with HGF concentration (iPS6.1 cells [1]): productivity increased with higher HGF concentrations
Effect of HGF addition on yields (iPS6.1-MRB cells; "normal" run, 1 L spinner): no effect
CM/L (millions) (iPS6.1-MRB cells; Run #1 (Jun. 6, 2009)): 48.9 millions
Purity (% RFP+) (iPS6.1-MRB cells; Run #1 (Jun. 6, 2009)): 6.6%
CM/L (millions) (iPS6.1-MRB cells; Run #2 (Jun. 10, 2009)): 17.5 millions
Purity (% RFP+) (iPS6.1-MRB cells; Run #2 (Jun. 10, 2009)): 3.7%
CM/L (millions) (iPS6.1-MRB cells; Run #3 (Jun. 14, 2009)): 10.0 millions
Purity (% RFP+) (iPS6.1-MRB cells; Run #3 (Jun. 14, 2009)): 2.6%
Fraction with better CM/L @ 50 ng/mL HGF than 0 (iPS6.1 and H9-TGZ cells; [3]): 0/1
Fraction with better iPS:CM ratio @ 50 ng/mL HGF than 0 (iPS6.1 and H9-TGZ cells; [3]): 0/1
Fraction with better CM/L @ 50 ng/mL HGF than 0 (iPS6.1 and H9-TGZ cells; [4]): 3/4
Fraction with better iPS:CM ratio @ 50 ng/mL HGF than 0 (iPS6.1 and H9-TGZ cells; [4]): 3/4
Fraction with better CM/L @ 50 ng/mL HGF than 0 (iPS6.1 and H9-TGZ cells; [5]): 2/4
Fraction with better iPS:CM ratio @ 50 ng/mL HGF than 0 (iPS6.1 and H9-TGZ cells; [5]): 2/4
Fraction with better CM/L @ 50 ng/mL HGF than 0 (iPS6.1 and H9-TGZ cells; [6]): 0/1
Fraction with better iPS:CM ratio @ 50 ng/mL HGF than 0 (iPS6.1 and H9-TGZ cells; [6]): 0/1
CM/L, Average (iPS6.1 and H9-TGZ cells; [7]): 49
CM/L, Best (iPS6.1 and H9-TGZ cells; [7]): 140
CM/L, Worst (iPS6.1 and H9-TGZ cells; [7]): 1.5
iPS:CM, Average (iPS6.1 and H9-TGZ cells; [7]): 100
iPS:CM, Best (iPS6.1 and H9-TGZ cells; [7]): 7
iPS:CM, Worst (iPS6.1 and H9-TGZ cells; [7]): 712
Fraction with better CM/L @ 50 ng/mL HGF than 0 (iPS6.1 and H9-TGZ cells; [8]): 2/4
Fraction with better iPS:CM ratio @ 50 ng/mL HGF than 0 (iPS6.1 and H9-TGZ cells; [8]): 2/4
Fraction with better CM/L @ 50 ng/mL HGF than 0 (iPS6.1 and H9-TGZ cells; [9]): 7/14
Fraction with better iPS:CM ratio @ 50 ng/mL HGF than 0 (iPS6.1 and H9-TGZ cells; [9]): 7/14
Effect of HGF in cardiomyocyte production process (on average) (iPS6.1 and H9-TGZ cells; with vs without 50 ng/mL HGF, 14 paired conditions): no measurable positive or negative effect
Trend of culture performance across HGF concentrations (H9-TGZ cells): no observable trend of culture performance
Trend in cardiomyocyte yield or iPS:CM ratio across HGF concentrations (iPS6.1 cells [2]): no consistent trend in cardiomyocyte yield or iPS:CM ratio
